# Results published in patent publication US8901138B2, “Sulfoximine substituted quinazolines for pharmaceutical compositions” (Boehringer Ingelheim International GmbH, priority 2012, dated 2014).
# Target: T1, MNK2a (Homo sapiens, UniProt Q9HBH9)
# T1 construct: made in house
# Test: MNK2a in vitro kinase assay (assay 1), ADP-Glo
# Type: biochemical
# Conditions: preactivated GST-MNK2a, 20 μM ATP, read-out: MNK2 IC50
# Protocol: A. MNK2a In Vitro Kinase Assay (Assay 1)
# ASSAY SETUP: The inhibition of kinase activity of MNK2a was assessed using preactivated GST-MNK2a. The white, 384-well OptiPlate F plates were purchased from Perkin Elmer. The ADP-Glo Kinase Assay (including ultra pure ATP) was purchased from Promega (V9103). Activated MNK2a was obtained as described in WO2011/104340. The unlabeled eIF4E peptide (NH2-[…]—CONH2) (SEQ ID NO: 1), differing from Seq. ID No. 5 of WO 2011/104340 by the C-terminal —CONH2 group, was purchased from Thermo Fisher Scientific. All other materials were of highest grade commercially available. Compounds are tested in either serial dilutions or single dose concentrations. The compound stock solutions are 10 mM in 100% DMSO The serial compound dilutions are prepared in 100% DMSO followed by 1:27.3 intermediate dilution in assay buffer. The final DMSO concentration in assay will be <3%. In the 384-well plates 3 μl of test compound from the intermediate dilution is mixed with 4 μl of the activated MNK2 enzyme (final concentration of 10 nM) and 4 μl of the peptide (final concentration of 25 μM)/ultra pure ATP (final concentration of 20 μM), all dissolved in assay buffer. This step is followed by an incubation time of 90 min, then 10 μl of ADP Glo reagent are added, followed by 40 min of incubation. Then 20 μl of kinase detection reagent are admixed. The plates are sealed and after an incubation period of 30 min, the luminescence signal is measured in an Envision reader to determine the amount of produced ADP. All incubation steps are performed at room temperature. The assay buffer consists of 20 mM HEPES, 2 mM DTT, 0.01% BSA, 20 mM MgCl2 and 0.1% Pluronic F-127.
# Each assay microtiter plate contains wells with vehicle controls instead of compound (1% DMSO in water) as reference for the high signal (100% CTL, high signal), and wells containing a potent MNK2 inhibitor (final 20 μM, 1% DMSO) as reference for low signal (0% CTL, low signal).
# The luminescent signal generated is proportional to the ADP concentration produced and is correlated with activated MNK2 activity. The analysis of the data is performed by the calculation of the percentage of ATP consumption of activated MNK2 in the presence of the test compound compared to the consumption of ATP in the presence of activated MNK2 without compound. (RLU(sample)−RLU(low control))*100/(RLU(high value)−RLU(low control)) [RLU=relative luminescence units]
# An inhibitor of the MNK2 enzyme will give values between 100% CTL (no inhibition) and 0% CTL (complete inhibition). Values of more than 100% CTL are normally related to compound/sample specific physico-chemical properties (e.g. solubility, light absorbance, fluorescence).
# IC50 values based on dose response curves are calculated with the AssayExplorer software.
# T1 sequence (Q9HBH9 whole entry): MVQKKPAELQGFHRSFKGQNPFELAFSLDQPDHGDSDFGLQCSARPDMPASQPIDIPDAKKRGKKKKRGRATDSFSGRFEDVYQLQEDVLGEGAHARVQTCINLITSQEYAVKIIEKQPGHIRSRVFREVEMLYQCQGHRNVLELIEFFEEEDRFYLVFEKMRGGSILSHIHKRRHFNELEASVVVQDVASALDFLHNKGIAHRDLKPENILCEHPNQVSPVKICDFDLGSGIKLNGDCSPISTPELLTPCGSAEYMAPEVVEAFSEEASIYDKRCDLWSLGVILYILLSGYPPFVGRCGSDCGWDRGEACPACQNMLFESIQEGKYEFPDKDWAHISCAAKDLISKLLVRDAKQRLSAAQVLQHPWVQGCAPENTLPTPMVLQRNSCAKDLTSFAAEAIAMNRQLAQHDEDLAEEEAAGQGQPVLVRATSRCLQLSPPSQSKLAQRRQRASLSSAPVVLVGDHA
row,Structure (SMILES),IC50 [nM]
1,CS(C)(=O)=Nc1cc(Cl)c2c(Nc3ccc(F)cc3O[C@@H]3CO[C@H]4[C@@H]3OC[C@H]4O)ncnc2c1 [Example 1.6],1
2,COc1cc(N=S(C)(C)=O)cc2ncnc(Nc3ccc(F)cc3O[C@H]3CCOC3)c12 [Example 5.2],2
3,CS(C)(=O)=Nc1cc(Cl)c2c(Nc3ccc(F)cc3O[C@@H]3CO[C@H]4[C@@H]3OC[C@@H]4O)ncnc2c1 [Example 1.3],1
4,Cc1cc(N=S2(=O)CCCC2)cc2ncnc(Nc3ccc(F)cc3O[C@@H]3CO[C@H]4[C@@H]3OC[C@@H]4O)c12 [Example 2.83],1
5,O=S1(=Nc2cc(Cl)c3c(Nc4ccc(F)cc4O[C@@H]4CO[C@@H]5CCO[C@@H]54)ncnc3c2)CCCC1 [Example 1.7],1
6,CS(C)(=O)=Nc1cc(F)c2c(Nc3ccc(F)cc3O[C@H]3CCOC3)ncnc2c1 [Example 2.89],3
7,CCS(C)(=O)=Nc1cc(C)c2c(Nc3ccc(F)cc3O[C@H]3CC[C@H](O)CC3)ncnc2c1 (stereo partly shown) [Example 2.22],3
8,CS(C)(=O)=Nc1cc(Cl)c2c(Nc3cccnc3O[C@H]3CC[C@H](O)CC3)ncnc2c1 [Example 1.16],1
9,CO[C@@H]1CO[C@H]2[C@@H]1OC[C@H]2Oc1cc(F)ccc1Nc1ncnc2cc(N=S3(=O)CCCC3)cc(Cl)c12 [Example 1.13],1
10,Cc1cc(N=S(C)(C)=O)cc2ncnc(Nc3ccc(F)cc3O[C@H]3CC[C@@](C)(O)CC3)c12 [Example 2.74],3
11,O=S1(=Nc2cc(Cl)c3c(Nc4ccc(F)cc4O[C@H]4CCOC4)ncnc3c2)CCCC1 [Example 1.8],1
12,Cc1cc(N=S2(=O)CCCC2)cc2ncnc(Nc3cccnc3O[C@H]3CC[C@H](O)CC3)c12 [Example 2.69],2
13,CS(C)(=O)=Nc1cc(Cl)c2c(Nc3ccc(F)cc3O[C@H]3CCOC3)ncnc2c1 [Example 1.14],1
14,Cc1cc(N=S2(=O)CCCCC2)cc2ncnc(Nc3ccc(F)cc3O[C@H]3CCOC3)c12 [Example 2.78],3
15,Cc1cc(N=S(C)(=O)c2ccncc2)cc2ncnc(Nc3ccc(F)cc3O[C@@H]3CO[C@@H]4CCO[C@@H]43)c12 (stereo partly shown) [Example 2.96],4
16,CO[C@@H]1CO[C@H]2[C@@H]1OC[C@H]2Oc1cc(F)ccc1Nc1ncnc2cc(N=S3(=O)CCCC3)cc(C)c12 [Example 2.43],1
17,Cc1cc(N=S(C)(C)=O)cc2ncnc(Nc3ccc(F)cc3O[C@@H]3CCCC[C@@H]3O)c12 [Example 1.39],7
18,Cc1cc(N=S2(=O)CCCC2)cc2ncnc(Nc3ccc(F)cc3OC3COCCOC3)c12 [Example 2.25],2
19,COC1CS(=O)(=Nc2cc(C)c3c(Nc4ccc(F)cc4O[C@@H]4CO[C@@H]5CCO[C@@H]54)ncnc3c2)C1 (stereo partly shown) [Example 2.105],2
20,Cc1cc(N=S2(=O)CCCC2)cc2ncnc(Nc3ccc(F)cc3O[C@@H]3CO[C@H]4[C@@H]3OC[C@H]4O)c12 [Example 2.36],2
21,Cc1cc(N=S2(=O)CCC(O)C2)cc2ncnc(Nc3ccc(F)cc3O[C@H]3CCOC3)c12 (stereo partly shown) [Example 2.93],4
22,Cc1cc(N=S(C)(C)=O)cc2ncnc(Nc3ccc(F)cc3O[C@@H]3CCN(CC(F)F)C3)c12 [Example 6.14],3

row,Structure (SMILES),IC50 [nM]
1,CS(C)(=O)=Nc1cc(F)c2c(Nc3ccc(F)cc3OC3CCCC3)ncnc2c1 [Example 2.29],3
2,Cc1cc(N=S(C)(C)=O)cc2ncnc(Nc3ccc(F)cc3O[C@H]3C[C@H](N)C3)c12 [Example 3.14],2
3,Cc1cc(N=S2(=O)CCCC2)cc2ncnc(Nc3ccc(F)cc3O[C@@H]3CCN(CC(F)F)C3)c12 [Example 6.4],2
4,CO[C@H]1CC[C@H](Oc2ncccc2Nc2ncnc3cc(N=S(C)(C)=O)cc(C)c23)CC1 [Example 2.68],3
5,Cc1cc(N=S(C)(C)=O)cc2ncnc(Nc3ccc(F)cc3O[C@H]3CC[C@H](O)CC3)c12 [Example 2.71],3
6,Cc1cc(N=S(C)(C)=O)cc2ncnc(Nc3ccc(F)cc3O[C@@H]3CCOC3)c12 [Example 2.5],3
7,Cc1cc(N=S(C)(C)=O)cc2ncnc(Nc3ccc(F)cc3OC3CCCC3)c12 [Example 2.70],2
8,Cc1cc(N=S(C)(C)=O)cc2ncnc(Nc3ccc(F)cc3OC3CCC(O)C3)c12 (racemic) [Example 4.3],3
9,Cc1cc(N=S(C)(C)=O)cc2ncnc(Nc3ccc(F)cc3O[C@@H]3CC[C@H]3O)c12 [Example 1.34],3
10,Cc1cc(N=S(C)(C)=O)cc2ncnc(Nc3ccc(F)cc3OC3COCCOC3)c12 [Example 2.60],3
11,Cc1cc(N=S(C)(C)=O)cc2ncnc(Nc3ccc(F)cc3O[C@@H]3CO[C@@H]4CCO[C@@H]43)c12 [Example 2.39],2
12,COc1cc(N=S2(=O)CCCC2)cc2ncnc(Nc3cccnc3O[C@H]3CC[C@H](O)CC3)c12 [Example 2.18],1
13,COc1cc(N=S2(=O)CCCC2)cc2ncnc(Nc3ccc(F)cc3O[C@@H]3CO[C@H]4[C@@H]3OC[C@H]4OC)c12 [Example 2.9],1
14,Cc1cc(N=S2(=O)CCCC2)cc2ncnc(Nc3ccc(F)cc3O[C@@H]3CO[C@@H]4CCO[C@@H]43)c12 [Example 2.42],1
15,CCc1cc(N=S(C)(C)=O)cc2ncnc(Nc3ccc(F)cc3O[C@H]3CCOC3)c12 [Example 7.8],9
16,Cc1cc(N=S2(=O)CCCC2)cc2ncnc(Nc3ccc(F)cc3OC3CCc4ccccc43)c12 (stereo not shown) [Example 4.6],3
17,Cc1cc(N=S2(=O)CCCC2)cc2ncnc(Nc3ccc(F)cc3O[C@@H]3CCCN(S(C)(=O)=O)C3)c12 [Example 6.3],2
18,CO[C@H]1CC[C@H](Oc2cc(F)ccc2Nc2ncnc3cc(N=S4(=O)CCCC4)cc(C)c23)CC1 [Example 2.48],2
19,CS(C)(=O)=Nc1cc(Br)c2c(Nc3ccc(F)cc3O[C@H]3CCOC3)ncnc2c1 [Example 1.11],1
20,COc1cc(N=S2(=O)CCCC2)cc2ncnc(Nc3ccc(F)cc3O[C@H]3CC[C@H](O)CC3)c12 [Example 2.90],2
21,CS(C)(=O)=Nc1cc(C(F)(F)F)c2c(Nc3ccc(F)cc3O[C@H]3CCOC3)ncnc2c1 [Example 1.5],3
